Data: US12678440B2, “Compositions and methods for treating misfolded protein ocular disorders” (CASE WESTERN RESERVE UNIVERSITY, priority 2020, dated 2026)

How the values were obtained:
Format in all cases: cell-based
P23H rhodopsin [1] = experiment: Rhodopsin dot blot of NIH3T3 stable cells; conditions: 10 μM, 24 h, vs DMSO
Experimental: NIH3T3 (RHO^P23H/GFP) or NIH3T3 (RHO^WT/GFP) cells were seeded at 2.5×10^4 cells/well in 100 μL/well complete medium in a 96-well plate and cultured at 37° C. with 5% CO2 for 4 h. Cells then were treated with 100 μL/well complete medium containing 2×the final concentration of tested compounds. After 24 h of further incubation at 37° C. with 5% CO2, the medium was aspirated, and the cells were washed once with PBS. The cell lysis buffer containing radioimmunoprecipitation assay (RIPA) buffer and complete protease inhibitor cocktail (Roche Diagnostics, Basel, Switzerland) were added to the cells at 200 μL/well followed by sonication for 6 s. Because the cellular protein level of RHO^WT was higher than RHO^P23H, 5% of one well NIH3T3 (RHO^WT/GFP) cells samples and 90% of one well NIH3T3 (RHO^P23H/GFP) cells samples were loaded to a nitrocellulose membrane and air-dried. Opsin protein was immunostained with 0.1 μg/mL HRP-conjugated 1D4 anti-rhodopsin antibody. Densitometry of the bands was measured by the ImageJ software and normalized to DMSO-treating control.

RHO transcripts = experiment: qPCR of RHO transcripts in NIH3T3 (RHO^P23H/GFP) and NIH3T3 (RHO^WT/GFP) cells; conditions: 10 μM, 24 h; for WT and P23H rhodopsin transcripts in comparison to DMSO control: both cell lines; for Rho mRNA level (qPCR): vs DMSO
Experimental: NIH3T3 (RHO^WT/GFP) and NIH3T3 (RHO^P23H/GFP) cells were seeded in the 24-well plates at a density of 2.5×10^5 cells/well and cultured at 37° C. with 5% CO2 for overnight. Cells were then incubated with the culture medium containing compounds for 24 h. After aspirating the medium, cells were collected and lysed in 300 μL/well of TRIzol (ThermoFisher, 15596026, Waltham, MA USA) for 5 min. Samples were vigorously mixed with 60 μL chloroform for 30 s, then centrifuged at 12,000×g for 15 min at 4° C. The upper aqueous phase containing RNA was taken out and mixed with 150 μL isopropanol by vigorous shaking. After sedation for 10 min, samples were centrifuged at 12,000×g for 10 min at 4° C. The pellets were washed with 300 μL 75% ethanol and centrifuged at 7,500×g at 4° C. for 5 min. The RNA pellets were air-dried for 15 min and dissolved in 30 μL nuclease-free water (FisherScientific, BP2484-100, Houston, TX USA). The yield and purity of RNA were assessed by a NanoDrop spectrometer. The cDNAs was generated from 1 μg RNA using a High-Capacity RNA-to-cDNA Kit (ThermoFisher, 4387406, Waltham, MA USA). qPCR amplifications were performed using the PowerUp SYBR Green Master Mix (ThermoFisher, A25741, Waltham, MA USA) with the cDNA templates and primers, and the reaction was controlled by a QuantStudio 3 thermocycler (ThermoFisher, Waltham, MA USA). Primer sequences are as follows: RHO, forward 5′-CCCTTCTCCAACGTCACAGG-3′ (SEQ ID NO: 1), reverse 5′-TGAGGAAGTTGATGGGGAAGC-3′ (SEQ ID NO: 2); β-actin, forward 5′-ACCTTCTACAATGAGCTGCG-3′ (SEQ ID NO: 3), reverse 5′-CTGGATGGCTACGTACATGG-3′ (SEQ ID NO: 4).

P23H rhodopsin [2] = experiment: Non-radioactive pulse-chase assay in NIH3T3 (RHO^P23H/GFP) cells; conditions: 10 μM; for Rate of Rho^P23H degradation (Pulse-chase): 24 h of chase, vs DMSO; for BTN-AHA labeled P23H rhodopsin at 24 h of chase: in comparison to DMSO control
Experimental: To quantify rhodopsin degradation, a non-radioactive pulse-chase assay was used with a ‘click’ reaction. Briefly, NIH3T3 (Rho^P23H/GFP) or NIH3T3 (Rho^WT/GFP) cells were cultured in a 24-well plate at 3×10^5 cells/well in the complete medium with 10% FBS. The medium was aspirated after overnight culture, and cells were gently washed once with 1 mL/well of PBS. Cell were incubated in the L-methionine-free DMEM (Gibco, 21013-024, Gaithersburg, MD USA) for 1 h to exhaust the intracellular methionine. Then the cells were pulsed with L-AHA at final concentration 50 μM for 4 h. Meanwhile, the cells treated with 50 μM L-methionine were used as negative control. After labeling, cells were replaced with the complete DMEM medium with 2 mM L-methionine in the presence or absence of active compounds for a varying time of chase. Then cells were lysed with PBS containing 0.1% SDS, 1% DDM and the complete protease inhibitor cocktail. The total protein concentrations were measured by a BCA assay. Cell lysate containing 200 μg total protein was mixed with 5 μM BTN-sDIBO to make a ‘click’ reaction for 1 h at 37° C. Samples were incubated with Dynabeads™ Protein G binding with 1D4 anti-rhodopsin antibody for 15 min at room temperature followed by three washes with PBS containing 0.02% Tween 20. Proteins were eluted with 50 mM Glycine at pH 2.8 for 10 min at room temperature and then loaded onto nitrocellulose membranes. After air-dried, the membranes were blocked with 5% milk and immunoblotted with 0.25 μg/mL HRP-conjugated SA.

| Structure (SMILES) | Rho protein level (Dot blot) (P23H rhodopsin [1]) | WT and P23H rhodopsin transcripts in comparison to DMSO control (RHO transcripts) | Rho mRNA level (qPCR) (RHO transcripts) | Rate of Rho^P23H degradation (Pulse-chase) (P23H rhodopsin [2]) | BTN-AHA labeled P23H rhodopsin at 24 h of chase (P23H rhodopsin [2]) | increase of rhodopsin transcripts compared to DMSO control (RHO transcripts; both NIH3T3 (RHO^P23H/GFP) and NIH3T3 (RHO^WT/GFP) cells) |
| --- | --- | --- | --- | --- | --- | --- |
| CC(=O)OC(CC(=O)[O-])C[N+](C)(C)C (centres unmarked) [CL-001] | Down | reduced non-selectively | Down | Up | significantly reduced |  |
| CC(=O)OC(CC(=O)O)C[N+](C)(C)C (centres unmarked) [CL-002] | Down | reduced non-selectively | Down | Up | significantly reduced |  |
| O=C(O)C1=CC=CC(O)C1O (centres unmarked) [CL-003] | Down | reduced non-selectively | Down | No Change |  |  |
| CC(O)CN (centres unmarked) [CL-004] | Down | reduced non-selectively | Down | No Change |  |  |
| NCC(=O)COP(=O)(O)O [CL-005] | Down |  | Up | Up | significantly reduced | up to 2 fold |
| O=C(NC1CCNCC1)c1n[nH]cc1NC(=O)c1c(Cl)cccc1Cl [CL-006] | Down | reduced non-selectively | Down | No Change |  |  |
| CCn1cnc2c(N)ncnc21 [CL-007] | Down | reduced non-selectively | Down | Up | significantly reduced |  |
| CCC(C)(O)C(O)C(=O)O (centres unmarked) [CL-008] | Down | reduced non-selectively | Down | No Change |  |  |
| CN(Cc1cnc2nc(N)nc(N)c2n1)c1ccc(C(=O)N[C@@H](CCC(=O)O)C(=O)O)cc1 [CL-009, N-[4-[[(2,4-diamino-6-pteridinyl)methyl]methylamino]benzoyl]-L-glutamic acid] | Down | did not affect the transcription | No Change | Up | significantly reduced |  |
